Patent US9340821B2, “Specific fluorescent probe based on albumin pseudo-esterase hydrolysis reaction and use thereof” (DALIAN INSTITUTE OF CHEMICAL PHYSICS, CHINESE ACADEMY OF …, priority 2013, dated 2016)

What was measured:
HSA [1] = biological target: T1, HSA (Homo sapiens, UniProt P02768); assay: Quantitative analysis of albumin in human plasma sample; design: from tissue; host or cells: human plasma (A3); human urine (A4); details: human plasma diluted 200 times in PBS pH 7.4, probe 10 μM, 45° C., 30 min
Description: (1) 1 μL of human plasma sample was diluted to 200 times by PBS (pH 7.4, 10 mM), then samples were incubated turmoil at 45° C. for 10 min.
(2) 4 μL fluorescent probe B (0.5 mM) was added to the above solution to make the final concentration of the fluorescent probe to 10 μM, and then samples were incubated at 45° C.
(3) After 30 min, 200 μL of ice-cold CH3CN was added to the sample and stirred, and then the reaction was stopped.
(4) Detecting the fluorescence intensity of probe B (λex=342 nm, λem=416 nm) and hydrolysate B1 (λex=452 nm, λem=564 nm) at corresponding wavelength and calculating the fluorescence intensity ratio of B1 to B, the fluorescence ratio was substituted into working curve from example 2, concentration of HSA in plasma albumin was calculated as […].

HSA [2] = biological target: T1, HSA; assay: Quantitative analysis of albumin in urine sample; details: human urine diluted with PBS pH 7.4, probe 10 μM, 37° C., 30 min
Description: (1) 490 μL of human urine sample was diluted by 490 μL PBS (pH 7.4, 10 mM), and then samples were incubated at 45° C. for 10 min.
(2) 20 μL fluorescent probe C (0.5 mM) was added to the above solution to make the final concentration of the fluorescent probe to 10 μM, and then samples were incubated turmoil at 37° C. for 30 min, 1 mL ice-cold CH3CN was added to the sample and stirred for 15 second, then the reaction was stopped.
(3) Detecting the fluorescence intensity of probe C (λex=342 nm, λem=416 nm) and hydrolysate C1 (λex=452 nm, λem=564 nm) at corresponding wavelength and the fluorescence intensity ratio of C1 to C was calculated.
(4) Finding the corresponding albumin level in the working curve, concentration of HSA in the sample was calculated as 48 mg/L.

HSA [3] = biological target: T1, HSA; assay: Quantitative analysis of HSA in recombinant expression system; details: 1 mg/mL recombinant HSA in PBS pH 7.4, probe 10 μM, 37° C., 30 min
Description: (1) 10 mg recombinant HSA was weighted and dissolved in PBS (pH=7.4), configuring to 1 mg/mL albumin solution at 37° C.
(2) 20 μL fluorescent probe D (0.5 mM) was added to the above solution to make the final concentration of the fluorescent probe to 10 μM, and then samples were incubated turmoil at 37° C. for 30 min, 1 mL ice-cold CH3CN was added to the sample and stirred for 15 second, then the reaction stopped.
(3) Detecting the fluorescence intensity of probe D (λex=342 nm, λem=416 nm) and hydrolysate D1 (λex=452 nm, λem=564 nm) at corresponding wavelength and the fluorescence intensity ratio of D1 to D was calculated.
(4) Based on the working curve, the concentration of HSA in this sample (1 mg/mL recombinant HSA solution) was calculated as 14.9 μM.

T1 sequence (P02768 25-609): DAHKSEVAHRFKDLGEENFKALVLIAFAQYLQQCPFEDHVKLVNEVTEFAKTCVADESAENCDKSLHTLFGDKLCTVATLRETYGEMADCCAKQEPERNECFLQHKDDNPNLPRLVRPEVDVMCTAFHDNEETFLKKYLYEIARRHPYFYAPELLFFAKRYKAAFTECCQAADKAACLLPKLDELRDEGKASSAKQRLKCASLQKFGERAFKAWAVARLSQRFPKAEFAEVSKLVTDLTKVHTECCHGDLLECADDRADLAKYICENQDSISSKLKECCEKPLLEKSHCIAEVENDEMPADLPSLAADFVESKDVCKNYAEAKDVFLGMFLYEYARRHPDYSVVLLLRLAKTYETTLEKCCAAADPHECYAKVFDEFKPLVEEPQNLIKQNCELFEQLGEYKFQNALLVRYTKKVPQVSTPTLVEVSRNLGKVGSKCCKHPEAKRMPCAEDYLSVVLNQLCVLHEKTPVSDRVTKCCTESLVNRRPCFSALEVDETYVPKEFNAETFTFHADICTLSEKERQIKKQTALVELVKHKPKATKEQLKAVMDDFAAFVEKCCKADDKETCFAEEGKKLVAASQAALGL

`CCCCN1C(=O)c2cccc3c(OC(=O)c4ccc(C)cc4)ccc(c23)C1=O` [Probe B, N-n-butyl-1,8-naphthalimide-4-(4-methylphenylbenzoate)] gave a concentration of HSA in plasma calculated from fluorescence ratio (HSA [1]) of 46.2 mg/mL.
For `O=C(O)CCCN1C(=O)c2cccc3c(OC(=O)c4ccc(-c5ccccc5)cc4)ccc(c23)C1=O` [Probe C, N-3-carboxy propyl-1,8-naphthalimide-4-phenylbenzoate], the “concentration of HSA in urine sample calculated from working curve” value (HSA [2]) was 48 mg/L.
`CCCCN1C(=O)c2cccc3c(OC(=O)c4ccc(OC)cc4)ccc(c23)C1=O` [Probe D, N-n-butyl-1,8-naphthalimide-4-(4-methoxyphenylbenzoate)] was tested, and the “concentration of HSA in recombinant HSA solution calculated from working curve” value (HSA [3]) was 14.9 µM.
